Source: patent publication EP1509215B1, “TREATMENT OR PREVENTION OF UROGENITAL ATROPHY AND ITS SYMPTOMS IN WOMEN” (Hormos Medical Ltd., priority 2002, dated 2003)

Columns and labels:
endometrium [1] = assay: Endometrial histology (biopsy taken by curettage), clinical phase I-II study; type: in vivo, healthy postmenopausal female volunteers; conditions: 30, 60, 90 mg daily, 3 months
Protocol: (§1) A clinical phase I-II study was carried out to study the effects of ospemifene on endometrial thickness, endometrial pathology, (biopsy taken by curettage as described by Vuopala et al, 1982) and cervical smear in healthy postmenopausal female volunteers in the age range 55 to 69 years. Tolerability and pharmacokinetics were also assessed. Raloxifene (60 mg daily) was used as reference. Ospemifene was given perorally at the doses of 30, 60 and 90 mg daily. […] Ospemifene was administered in gelatine capsules containing either 30, 60 or 90 mg of ospemifene.
(§2) This effect is clearly weaker than that seen with estrogen replacement therapy. […] The measured values were always smaller than 8 mm, which is considered to be a thickness which is indicative for a physiologically significant estrogenicity of SERMs like tamoxifen (Hann et al, 1997; Lahti et al, 1993).

endometrium [2] = assay: Thickness of the endometrium by ultrasonography, clinical phase I-II study; type: in vivo, healthy postmenopausal female volunteers; conditions: for increase in the thickness of the endometrium (average): 3 months, statistically not significant
Protocol: as §1, §2

[3] = Tolerability in the clinical studies; type: in vivo, posmenopausal women
Protocol: as §1
Based on the present data, the optimal clinical dose is expected to be higher than 25 mg daily and lower than 100 mg daily. A particularly preferable daily dose is found in the range 30 to 90 mg. […] In addition, ospemifene decreases total and LDL cholesterol, increases HDL cholesterol, and prevents osteoporosis and early stage breast cancer.

vaginal epithelium = assay: Cervical smear: maturity index / karyopyknosis index of the vaginal epithelium, clinical phase I-II study; conditions: for Change in maturity index for superficial cells (MI3 mean) / Change in maturity index for parabasal cells (MI1 mean): after 3 months; for Change in maturity index for superficial cells (MI3 mean): index 100 full estrogen, index 0 no estrogenicity; for Change in maturity index for parabasal cells (MI1 mean): index 100 no estrogenicity, index 0 full estrogen; for increase in the karyopyknosis index for superficial cells: 12 weeks; for change from baseline to post-treatment in the karyopyknosis index for superficial cells: individuals, start to 12 weeks, ospemifene 30, 60, 90 mg daily, raloxifene 60 mg daily, result in words
Protocol: Tolerability and pharmacokinetics were also assessed. Raloxifene (60 mg daily) was used as reference. Ospemifene was given perorally at the doses of 30, 60 and 90 mg daily. There were 29 volunteers at each dose level, as well as in the raloxifene group. Ospemifene was administered in gelatine capsules containing either 30, 60 or 90 mg of ospemifene. […] The vaginal epithelium was assessed by karyopyknosis index which is a well known assessment method among the skilled persons. In this method, the vaginal fraction of the cervical smears is estimated as the percentage of the number of cells from different layers: the parabasal cell layer; the intermediate cell layer; and the superficial cell layer. Estrogenicity is seen by a shift towards superficial cell fraction. In postmenopausal women this fraction usually is close to zero and estradiol treatment increases the fraction close to 100. Samples were taken before and after the treatment (at 3 months).
Table 1. […] (MI 1: index 100 no estrogenicity; index 0 full estrogen, and MI 3: index 100 full estrogen; index 0 no estrogenicity).

Protocol for urogenital atrophy: In this study, raloxifene (60 mg/day) or ospemifene at different doses were given to elderly female volunteers for a period of 3 months.
77 were treated with 25-30 mg, 78 with 50-60 mg, 78 with 90-100 mg and 8 with 200 mg daily dose of ospemifene. In the control groups, 47 were treated with placebo and 29 with raloxifene. […] The symptoms include both vaginal and urinary symptoms such as vaginal discomfort with irritation, itching, burning, smarting, postcoital bleeding, vulvar itching and/or malodorous discharge and leukorrhea.

| SMILES | malignant findings in the endometrium (endometrium [1]) | estrogenic effect on endometrial histology (endometrium [1]; clearly weaker than with estrogen replacement therapy) | increase in the thickness of the endometrium (average) (endometrium [2]; 30 mg daily) [mm] | increase in the thickness of the endometrium (average) (endometrium [2]; 60 mg daily) [mm] | increase in the thickness of the endometrium (average) (endometrium [2]; 90 mg daily) [mm] | thickness of the endometrium, measured values (endometrium [2]; all measured values, 30, 60, 90 mg daily) | tolerability [3] | vaginal atrophy (urogenital atrophy; 30, 60 and 90 mg daily, 3 months, elderly female volunteers) | symptoms associated with urogenital atrophy (vaginal and urinary) (urogenital atrophy; spontaneous reports of some subjects, 25-200 mg daily, 241 women treated) | Change in maturity index for superficial cells (MI3 mean) (vaginal epithelium; 30 mg daily perorally) | Change in maturity index for parabasal cells (MI1 mean) (vaginal epithelium; 30 mg daily perorally) | Change in maturity index for superficial cells (MI3 mean) (vaginal epithelium; 60 mg daily perorally) | Change in maturity index for parabasal cells (MI1 mean) (vaginal epithelium; 60 mg daily perorally) | Change in maturity index for superficial cells (MI3 mean) (vaginal epithelium; 90 mg daily perorally) | Change in maturity index for parabasal cells (MI1 mean) (vaginal epithelium; 90 mg daily perorally) | estrogenic effect in the cervical smear (vaginal epithelium; 30, 60, 90 mg daily, 3 months) | pathological changes in cervical smear samples (vaginal epithelium; 30, 60, 90 mg daily, 3 months) | increase in the karyopyknosis index for superficial cells (vaginal epithelium; individual cases, all ospemifene groups (30, 60, 90 mg daily), all cases except one) | change from baseline to post-treatment in the karyopyknosis index for superficial cells (vaginal epithelium) | increase in the karyopyknosis index for superficial cells (vaginal epithelium; one case in the 90 mg group) |
| --- | --- | --- | --- | --- | --- | --- | --- | --- | --- | --- | --- | --- | --- | --- | --- | --- | --- | --- | --- | --- |
| OCCOc1ccc(/C(=C(/CCCl)c2ccccc2)c2ccccc2)cc1 [Ospemifene, (deaminohydroxy)toremifene] | no malignant findings | weak estrogenic effect | 0.2 | 0.5 | 0.5 | smaller than 8 mm | excellent tolerability | significant decrease in vaginal atrophy | alleviation of the symptoms associated with urogenital atrophy | +12.4 | -40 | +5.5 | -26 | +12.5 | -48 | weak but statistically significant estrogenic effect | No pathological changes | < 40 | slight increases | 45 |
| O=C(c1ccc(OCCN2CCCCC2)cc1)c1c(-c2ccc(O)cc2)sc2cc(O)ccc12 [Raloxifene, reference compound] |  |  |  |  |  |  |  |  |  |  |  | -0.3 | -2 |  |  |  |  |  | no one in the raloxifene group (Fig. 1D) had a significant change |  |
